These results are taken from publication PMC12040169 (PLOS Biology, 2025).

For orientation: viability means a read-out of living cells in per cent, often relative to untreated cells.

This data set can be described thus: in vitro. The conditions noted are these: human, hela cells, % viability.
With `COc1cc(C=O)ccc1Oc1nnnn1-c1ccc(C(=O)O)cc1` [CBK267071], the viability at 28.5 h, 10 µM came out at 95.5%. Turning to `CC(NC(=S)Nc1ccc(S(N)(=O)=O)cc1)c1ccncc1` (stereo not shown) [CBK267073], the viability at 28.5 h, 10 µM was 111%. The value for `CCn1c2ccccc2n2c(SC(C)C(=O)O)nnc12` (stereo not shown) [CBK267079] was 103%; that for `NS(=O)(=O)c1ccc(NC(=S)Nc2nn(Cc3ccc(Cl)c(Cl)c3)cc2Br)cc1` [CBK267082] was 94.4%; that for `Cc1cc(NC(=O)C(=O)NC(C)c2ccccc2)ccc1Br` (stereo not shown) [CBK267084] was 96.3%. Regarding `O=S(=O)(CC(CN1CCCCC1)N1CCCCC1)c1ccc2ccccc2c1` (stereo not shown) [CBK267087], the viability at 28.5 h, 10 µM stood at 100%. The value for `CCc1c(C)sc(NC(=S)Nc2cnccn2)c1C(=O)OC` [CBK267088] was 96.5%; that for `CC(=O)Nc1cccc(NC(=S)Nc2ccc(S(N)(=O)=O)cc2)c1` [CBK267091] was 98.4%; that for `COc1cc([N+](=O)[O-])ccc1NC(=O)NCc1ccc(C(=O)O)cc1` [CBK267092] was 87.1%. The value for `O=C(Nc1ccc(N2CCN(Cc3ccccc3)CC2)cc1)c1cncc(Br)c1` [CBK267093] was 85%. The value for `COC(=O)c1sc2cc(NC(=S)NCc3ccc(S(N)(=O)=O)cc3)ccc2c1Cl` [CBK267094] was 81.7%.

In the case of `COc1ccc(C)cc1NC(=O)NC1CCN(Cc2ccccc2)CC1` [CBK267095], the viability at 28.5 h, 10 µM worked out at 99.2%. As for `O=C(c1ccco1)N1CCN(C(=S)Nc2ccc(S(=O)(=O)Nc3ncccn3)cc2)CC1` [CBK267096], the viability at 28.5 h, 10 µM was 104%. The value for `N#CCCN(CCC#N)C(=O)CN1C(=O)c2ccccc2C1=O` [CBK267100] was 89%; that for `CCC(C)c1ccc(NC(=S)NCCn2cc(Cl)cn2)cc1` (stereo not shown) [CBK267101] was 90.7%; that for `NS(=O)(=O)c1ccc(NC(=S)NNC(=S)Nc2ccc(F)cc2F)cc1` [CBK267102] was 93.3%. The value for `O=C(CCc1ccc(O)c(O)c1)NNC(=S)Nc1ccccc1C(F)(F)F` [CBK267104] was 94.2%; that for `Cc1ccc(Cl)cc1NC(=O)CC(C(=O)O)N(C)C` (stereo not shown) [CBK267105] was 112%. For the molecule `COC(=O)c1ccc(NC(=O)COn2nnc3ccc([N+](=O)[O-])cc32)cc1` [CBK267106], the viability at 28.5 h, 10 µM was 94.3%. The value for `S=C(Nc1cccc(Cl)c1Cl)Nc1nn(Cc2ccc(Cl)c(Cl)c2)cc1Cl` [CBK267109] was 109%; that for `COC(=O)c1c(N=C(S)Nc2ccc(CC(=O)O)cc2)sc(C)c1C` [CBK267111] was 96.4%; that for `Cc1c(Cl)c(C(F)(F)F)nn1CCCNC(=S)Nc1ccc(S(N)(=O)=O)cc1` [CBK267113] was 100%. Take `CCc1cc(C(=O)OC)c(NC(=S)Nc2nc3cc(C)c(C)cc3s2)s1` [CBK267116]: the viability at 28.5 h, 10 µM was found to be 81%.

Turning to `CN(CC(=O)N1CCN(Cc2ccccc2)CC1)S(=O)(=O)c1ccc2ccccc2c1` [CBK267117], the viability at 28.5 h, 10 µM came to 90.1%. In the case of `O=C(O)COc1ccc(-c2nnn(CC(=O)O)n2)cc1` [CBK267124], the viability at 28.5 h, 10 µM came to 87.6%. As for `COC(=O)c1c(N=C(S)NN2CCN(C)CC2)sc2c1CCC(C)C2` (stereo not shown) [CBK267125], the viability at 28.5 h, 10 µM is 83.9%. The value for `Fc1ccc(-c2n[nH]c(=S)n2CCCN2CCOCC2)cc1` [CBK267127] was 100%; that for `CCCC(=O)Nc1ccc2c(c1)nc1n2CCN(Cc2ccccc2)C1` [CBK267129] was 105%. The value for `S=c1[nH]nc(CSc2nc3ccccc3[nH]2)n1-c1ccccc1` [CBK267133] was 87.3%.

Regarding `CC1=NN(C(=O)CSCc2ccccc2)C(O)(c2ccc(Cl)cc2)C1` (stereo not shown) [CBK267136], the viability at 28.5 h, 10 µM was 92.7%. As to `O=C(O)c1ccc(-c2ccc(/C=C/c3[nH]c(=O)[nH]c(=O)c3[N+](=O)[O-])o2)cc1Cl` [CBK267139], the viability at 28.5 h, 10 µM is 94.9%.
